Reference: patent US12568971B2, “Degradative method” (Catexel Technologies Limited, priority 2020, dated 2026)

Assays:
[1] = cited from earlier work
[2] = at 20° C.; cited from earlier work
[3] = Dynamic viscosity of alginate solution after treatment (alginate depolymerisation), Brookfield cone/plate viscometer; details: 60 min at 50° C.
Method: The bottle was placed in a warm water bath (50° C.) for 60 minutes before being removed and cooled in an ice bath. Finally, the dynamic viscosity was determined using a Brookfield viscosity meter as outlined below. Note 1: A 2 mM solution of [[…])2 (see description of stock 12 above) was mixed with equivalent volume of the 2 mM ascorbic acid stock solution (stock solution 7). Upon contact with the ascorbic acid, the catalyst turned from orange/red to red/purple. Note 2: 0.5 mL of both Me3-TACN ligand (stock solution 10) and MnSO4·H2O (stock solution 8) were mixed, stirred and used as a source of catalyst to be placed in the alginate solution. The dynamic viscosity of the samples was measured using a Brookfield HBDV-II cone/plate viscosity meter equipped with a spindle CPE-40. The viscometer was linked to a water bath to maintain the temperature at 25° C. The apparatus was controlled via computer (external mode) using the Rheocalc software. Initially, the viscometer was zeroed without spindle. Then, the spindle CPE-40 was installed and the gap between the bottom of the cone and the top of the cup was set according to the recommendations given by Brookfield. 0.5 mL of the treated alginate solution was placed in the cup of the viscometer using a disposable plastic syringe before the apparatus was closed and the test program launched. […] Results.

In the case of `O=C(O)[C@@H]1O[C@@H](O)[C@@H](O)[C@@H](O)[C@@H]1O` [α-L-guluronic acid], the pKa [1] is given as 3.65.
In the case of `O=C(O)[C@H]1O[C@@H](O)[C@@H](O)[C@@H](O)[C@@H]1O` [β-D-mannuronic acid], the pKa [1] is given as 3.38.
In the case of [Mn^IVMn^IV(μ-O)3(Me3-TACN)2][PF6]2, the water solubility [2] is given as 10.8 mg/mL.
With `O=S(=O)([O-])[O-].[Mn+2]` [MnSO4, manganese sulfate] the “Dynamic Viscosity” value ([3]; Entry 1: 10 μM MnSO4, 10 μM Me3TACN ligand, 20 mM H2O2, 4.7 mM NaHCO3, pH 10) was 85.4 mPa · s, the “Dynamic Viscosity” value ([3]; Entry 2: 10 μM MnSO4, 20 μM Me3TACN ligand, 20 mM H2O2, 4.7 mM NaHCO3, pH 10) was 76.1 mPa · s and the “Dynamic Viscosity” value ([3]; Entry 3: 10 μM MnSO4, 40 μM Me3TACN ligand, 20 mM H2O2, 4.7 mM NaHCO3, pH 10) was 63.4 mPa · s.
With `CC(=O)[O-].CN1CCN(C)CCN(CCN2CCN(C)CCN(C)CC2)CC1.[Cl-].[Cl-].[Mn+3].[Mn+4].[O-2].[O-2]` [[Mn2(μ-O)2(μ-CH3COO)(Me4-DTNE)]^2+, [Mn2(μ-O)2(μ-CH3COO)(Me4DTNE)]Cl2] the “Dynamic Viscosity” value ([3]; 2.5 μM, pH 7.5, 10 mM H2O2, no buffer) was 82.3 mPa · s, the “Dynamic Viscosity” value ([3]; 2.5 μM, pH 8.0, 10 mM H2O2, no buffer) was 82.9 mPa · s and the “Dynamic Viscosity” value ([3]; 2.5 μM, pH 8.5, 10 mM H2O2, no buffer) was 80.7 mPa · s. For the same compound, the “Dynamic Viscosity” value ([3]; 5.0 μM, pH 7.5, 10 mM H2O2, no buffer) was 49.4 mPa · s, the “Dynamic Viscosity” value ([3]; 5.0 μM, pH 8.0, 10 mM H2O2, no buffer) was 53.7 mPa · s and the “Dynamic Viscosity” value ([3]; 5.0 μM, pH 8.5, 10 mM H2O2, no buffer) was 51.5 mPa · s. The “Dynamic Viscosity” value ([3]; 5.0 μM, pH 9.0, 10 mM H2O2, no buffer) was 62.9 mPa · s.
